One data set relates to CYP1A2. The note with it: human, hepatocytes.
The next data set concerns CYP1A1. The note with it: human, hepatocytes.
The next data set deals with CYP3A4. Kind of data set: Induction potency of drug metabolizing enzyme (CYP) using cryopreserved human hepatocytes, CYP3A4 mRNA. Conditions: approximately 48 hours, mRNA normalised to GAPDH, positive control rifampicin 10 μM.
In a further data set the test system is CYPs. As to the kind of experiment: Induction potency on CYPs in cryopreserved human hepatocytes, overall statement. It is filed as in vitro ADME. The note with it: cryopreserved human hepatocytes, 1, 3 and 10 μM; result in words. Here is the method:
The ability to induce CYP1A2 or CYP3A4 was calculated in the same manner described above.

Results on eight molecules are retold here after patent publication US7939540B2, “4-(3-benzoylaminophenyl)-6,7-dimethoxy-2-methylaminoquinazoline derivatives” (Eisai R&D Management Co., Ltd., priority 2006, dated 2011).

Like-named read-outs stand apart in the source and are kept apart here.

Method for CYP1A1: (§1) Cryopreserved human hepatocytes (XenoTeck) were rapidly thawed at 37° C., and viable cells were obtained using Hepatocytes Isolation Kit (Nosan Corporation). After cells prepared were diluted with ice cold William's Medium E (10% FBS, +PSG) to give a concentration of 5×10^5 viable cells/mL, the cells were seeded onto a 48-well collagen-coated plate (BD Biosciences) at a concentration of 1×10^5 cells/cm^2 and cultured at 37° C. in 5% CO2 for 24 hours. Then, the medium was replaced with Hepato-STIM (registered trade mark: BD Biosciences) (+EGF, PSG, −FBS), and the cells were further cultured at 37° C. in 5% CO2 for 24 hours. […] The culture medium containing test compound, β-NF or Rif was replaced every 24 hours. Test compound, β-NF and Rif were each dissolved in dimethyl sulfoxide (DMSO: Wako Pure Chemical Industries, Ltd.), and culture medium containing test compound (final concentrations; 1, 3 and 10 μM), β-NF (final concentration; 10 μM) or Rif (final concentration; 10 μM) was prepared by adding them to Hepato-STIM(+EGF, PSG, −FBS), respectively. Final concentration of DMSO was set to be 0.1%, and culture medium containing 0.1% DMSO was used for control. After completion of the treatment, the cells were washed with PBS once, and total RNA was purified using Total RNA Purification Kit (Applied Biosystems). The purified total RNA was subjected to reverse transcription reaction using TaqMan Reverse Transcription Reagents (Applied Biosystems) to synthesize cDNA, where oligo dT was used as a primer. The reaction was carried out using Gene Amp PCR system 9700 at 25° C. for 10 minutes, followed by at 48° C. for 60 minutes. Then, reverse transcriptase was deactivated at 95° C. for 10 minutes. The levels of mRNA for CYP1A1 and GAPDH were quantified using SYBR Green PCR Core Reagents Kit (Applied Biosystems), and those for CYP1A2 and that of CYP3A4 were measured using Taqman PCR Core Reagents Kit (Applied Biosystems) and ABI Prism 7900 Sequence Detection System (Applied Biosystems).
(§2) * A cycle consisting of denaturation, annealing, and elongation reaction, was repeated 50 times.
(§3) The ability of a test compound to induce CYP1A1 was calculated as follows: Ability of a test compound to induce CYP1A1 (%)={[(amount of mRNA of CYP1A1 in test compound treated cells)/(amount of mRNA of GAPDH in test compound treated cells)]/[(amount of mRNA of CYP1A1 in control cells)/(amount of mRNA of GAPDH in control cells)]−1}/{[(amount of mRNA of CYP1A1 in positive control treated cells)/(amount of mRNA of GAPDH in positive control treated cells)]/[(amount of mRNA of CYP1A1 in control cells)/(amount of mRNA of GAPDH in control cells)]−1}×100
Method for CYP1A2: as §1, §2, §3
Method for CYP3A4: as §1, §2, §3

For `CNc1nc(-c2cccc(NC(=O)c3cccc(C(=O)OCCOC)c3)c2)c2cc(OC)c(OC)cc2n1` [Example 21, N-[3-(6,7-dimethoxy-2-methylaminoquinazolin-4-yl)phenyl]isophthalamic acid 2-methoxyethyl ester], the “Induction Ability compared to positive control (%) CYP1A2” value (from here on “Induction Ability … (%) CYP1A2”) in the data set on CYP1A2 (1 μM) is reported as 0.6%; in the data set on CYP1A2 (3 μM) it was −0.3%; in the data set with CYP1A2 (10 μM), 0.4%. The “Induction Ability compared to positive control (%) CYP1A1” value (“Induction Ability … (%) CYP1A1” for short) in the data set with CYP1A1 (1 μM) worked out at 0.0%; in the data set with CYP1A1 (3 μM) it was 0.0%; in the data set with CYP1A1 (10 μM), 0.1%. For the same molecule, the “Induction Ability compared to positive control (%) CYP3A4” value (“Induction Ability … (%) CYP3A4” for short) with CYP3A4 (test compound 1 μM) is −1.2%; with CYP3A4 (test compound 3 μM), −1.6%; in the data set on CYP3A4 (test compound 10 μM) it was −2.0%.

With `CNC(=O)c1cccc(C(=O)Nc2cccc(-c3nc(NC)nc4cc(OC)c(OC)cc34)c2)c1` [Example 16, N-[3-(6,7-dimethoxy-2-methylaminoquinazolin-4-yl)phenyl]-N′-methylisophthalamide], the “Induction Ability … (%) CYP1A2” value is 0.2% in the data set with CYP1A2 (1 μM), 3.9% in the data set on CYP1A2 (3 μM) and 1.2% in the data set with CYP1A2 (10 μM). In addition, the “Induction Ability … (%) CYP1A1” value with CYP1A1 (1 μM) was found to be 0.0%; in the data set on CYP1A1 (3 μM), 0.3%; in the data set with CYP1A1 (10 μM) it was 1.0%. The “Induction Ability … (%) CYP3A4” value in the data set with CYP3A4 (test compound 1 μM) is reported as −0.7%; in the data set on CYP3A4 (test compound 3 μM), −0.3%; in the data set with CYP3A4 (test compound 10 μM), 2.7%.

Regarding `CCCOC(=O)c1cccc(C(=O)Nc2cccc(-c3nc(NC)nc4cc(OC)c(OC)cc34)c2)c1` [Example 14, propyl N-[3-(6,7-dimethoxy-2-methylaminoquinazolin-4-yl)phenyl]isophthalic acid], the figures for the “Induction Ability … (%) CYP1A2” value in the data set on CYP1A2 (1 μM), in the data set on CYP1A2 (3 μM) and in the data set on CYP1A2 (10 μM) were 1.2%, 3.0% and 1.8%, respectively. Moreover, the “Induction Ability … (%) CYP1A1” value in the data set with CYP1A1 (1 μM) came out at 0.2%; in the data set on CYP1A1 (3 μM), 0.3%; with CYP1A1 (10 μM), 0.7%. The “Induction Ability … (%) CYP3A4” value with CYP3A4 (test compound 1 μM) is 0.7%; with CYP3A4 (test compound 3 μM) it was −0.1%; in the data set with CYP3A4 (test compound 10 μM), −1.5%.

`CNc1nc(-c2cccc(NC(=O)c3ccccc3)c2)c2cc(OC)c(OC)cc2n1` [Comparative example, 4-(3-benzoylaminophenyl)-6,7-dimethoxy-2-methylaminoquinalozine, reference compound]: the figures for the “Induction Ability … (%) CYP1A2” value in the data set on CYP1A2 (1 μM), with CYP1A2 (3 μM) and in the data set on CYP1A2 (10 μM) were 7.2%, 34.3% and 35.0%, respectively. The “Induction Ability … (%) CYP1A1” value was determined as 2.1% in the data set on CYP1A1 (1 μM), 18.5% with CYP1A1 (3 μM) and 51.9% in the data set with CYP1A1 (10 μM). The results for the “Induction Ability … (%) CYP3A4” value in the data set on CYP3A4 (test compound 1 μM), in the data set with CYP3A4 (test compound 3 μM) and in the data set on CYP3A4 (test compound 10 μM) were 1.6%, 10.8% and 17.0%, respectively. In addition, the “induction potency on CYPs” value with CYPs is reported as “induction potency on CYPs was observed”.

In the case of `CCOC(=O)c1ccc(C(=O)Nc2cccc(-c3nc(NC)nc4cc(OC)c(OC)cc34)c2)cc1` [Example 4, ethyl N-[3-(6,7-dimethoxy-2-methylaminoquinazolin-4-yl)phenyl]terephthalamic acid], the “Induction Ability … (%) CYP1A2” value with CYP1A2 (1 μM) is −1.1%; in the data set on CYP1A2 (3 μM), 0.6%; in the data set with CYP1A2 (10 μM) it was 6.1%. Moreover, the “Induction Ability … (%) CYP1A1” value is given as 0.1% in the data set with CYP1A1 (1 μM), 0.4% in the data set with CYP1A1 (3 μM) and 1.5% in the data set on CYP1A1 (10 μM). Moreover, the “Induction Ability … (%) CYP3A4” value with CYP3A4 (test compound 1 μM) is given as −5.6%; in the data set on CYP3A4 (test compound 3 μM), −6.1%; with CYP3A4 (test compound 10 μM), 0.1%.

`CNc1nc(-c2cccc(NC(=O)c3ccc(C(=O)OCCOC)cc3)c2)c2cc(OC)c(OC)cc2n1` [Example 20, N-[3-(6,7-dimethoxy-2-methylaminoquinazolin-4-yl)phenyl]terephthalamic acid 2-methoxyethyl ester]: the “Induction Ability … (%) CYP1A2” value in the data set with CYP1A2 (1 μM) is given as −1.7%; in the data set on CYP1A2 (3 μM), −1.6%; in the data set with CYP1A2 (10 μM) it was −1.2%. Besides, the figures for the “Induction Ability … (%) CYP1A1” value in the data set with CYP1A1 (1 μM), in the data set on CYP1A1 (3 μM) and in the data set on CYP1A1 (10 μM) were 0.1%, 0.1% and 0.8%, respectively. Further, the “Induction Ability … (%) CYP3A4” value is −2.0% in the data set on CYP3A4 (test compound 1 μM), −2.1% with CYP3A4 (test compound 3 μM) and −2.2% in the data set on CYP3A4 (test compound 10 μM).

In the case of `CNc1nc(-c2cccc(NC(=O)c3ccc(C(=O)OC(C)C)cc3)c2)c2cc(OC)c(OC)cc2n1` [Example 7, isopropyl N-[3-(6,7-dimethoxy-2-methylaminoquinazolin-4-yl)phenyl]terephthalamic acid], the “Induction Ability … (%) CYP1A2” value in the data set on CYP1A2 (1 μM) was 0.5%; with CYP1A2 (3 μM) it was 1.5%; in the data set with CYP1A2 (10 μM), 3.1%. The figures for the “Induction Ability … (%) CYP1A1” value in the data set on CYP1A1 (1 μM), in the data set on CYP1A1 (3 μM) and with CYP1A1 (10 μM) were 0.2%, 1.8% and 5.7%, respectively. For the same molecule, the “Induction Ability … (%) CYP3A4” value in the data set on CYP3A4 (test compound 1 μM) was −6.6%; with CYP3A4 (test compound 3 μM), −9.8%; with CYP3A4 (test compound 10 μM), −11.9%.

With `CNC(=O)c1ccc(C(=O)Nc2cccc(-c3nc(NC)nc4cc(OC)c(OC)cc34)c2)cc1` [Example 5, N-[3-(6,7-dimethoxy-2-methylaminoquinazolin-4-yl)phenyl]-N′-methylterephthalamide], the “Induction Ability … (%) CYP1A2” value in the data set on CYP1A2 (1 μM) was −2.0%; in the data set on CYP1A2 (3 μM) it was −1.3%; in the data set with CYP1A2 (10 μM), 0.5%. Moreover, the “Induction Ability … (%) CYP1A1” value in the data set on CYP1A1 (1 μM), in the data set on CYP1A1 (3 μM) and with CYP1A1 (10 μM) was 0.0% throughout. The “Induction Ability … (%) CYP3A4” value in the data set on CYP3A4 (test compound 1 μM) is −6.9%; in the data set with CYP3A4 (test compound 3 μM), −6.2%; with CYP3A4 (test compound 10 μM), −2.0%.
